Measurements as given in the NIST ThermoML archive (doi:10.1016/j.tca.2009.03.014).
Numbers after ± are expanded uncertainties.

What was measured:
[1] = 101.33 kPa, Liquid; for mass density: Pycnometric method; for speed of sound: Linear variable-path acoustic interferometer
[2] = xn = mol fraction of the nth substance listed; details: 308.15 K, 101 kPa, Liquid; for excess molar volume: Direct dilatometry; for speed of sound: Linear variable-path acoustic interferometer
[3] = excess molar enthalpy (molar enthalpy of mixing); xn = mol fraction of the nth substance listed; details: 308.15 K, 101 kPa, Liquid, Calvet calorimetry

O=C1CCCN1 [2-pyrrolidinone]
[1]
Details	mass density [kg/m3]	speed of sound [m/s]
298.15 K	1107.26 ± 0.29	–
308.15 K	–	1603 ± 2.5

O=C1CCCN1 [2-pyrrolidinone] + CC(C)O
Details	excess molar enthalpy [kcal/mol]	excess molar volume [m3/mol]	speed of sound [m/s]
[2], x1 = 0.0825	–	-9.8e-08 ± 2e-09	–
[2], x1 = 0.0835	–	–	1144.9 ± 2.3
[2], x1 = 0.1311	–	-1.54e-07 ± 3e-09	–
[2], x1 = 0.1329	–	–	1166.9 ± 2.3
[2], x1 = 0.1719	–	-1.97e-07 ± 3e-09	–
[2], x1 = 0.1976	–	–	1196.8 ± 2.3
[2], x1 = 0.2365	–	-2.59e-07 ± 4e-09	–
[2], x1 = 0.2597	–	–	1225.6 ± 2.4
[2], x1 = 0.2949	–	-3.07e-07 ± 4e-09	–
[2], x1 = 0.3244	–	–	1256 ± 2.4
[2], x1 = 0.348	–	-3.36e-07 ± 4e-09	–
[2], x1 = 0.3815	–	–	1283.5 ± 2.4
[2], x1 = 0.4267	–	-3.69e-07 ± 4e-09	–
[2], x1 = 0.4394	–	–	1311.6 ± 2.4
[2], x1 = 0.4756	–	-3.81e-07 ± 5e-09	–
[2], x1 = 0.5031	–	–	1343.3 ± 2.4
[2], x1 = 0.5682	–	–	1376.4 ± 2.4
[2], x1 = 0.5684	–	-3.74e-07 ± 4e-09	–
[2], x1 = 0.6159	–	–	1401.1 ± 2.4
[2], x1 = 0.6315	–	-3.51e-07 ± 4e-09	–
[2], x1 = 0.6879	–	–	1439.2 ± 2.4
[2], x1 = 0.6921	–	-3.17e-07 ± 4e-09	–
[2], x1 = 0.7193	–	-2.98e-07 ± 4e-09	–
[2], x1 = 0.765	–	–	1479.9 ± 2.5
[2], x1 = 0.8048	–	-2.29e-07 ± 3e-09	–
[2], x1 = 0.8223	–	–	1511.6 ± 2.5
[2], x1 = 0.8941	–	-1.33e-07 ± 3e-09	–
[2], x1 = 0.9042	–	–	1553.8 ± 2.5
[3], x1 = 0.0841	0.11 ± 0.00239	–	–
[3], x1 = 0.1776	0.187 ± 0.00406	–	–
[3], x1 = 0.2315	0.21 ± 0.00454	–	–
[3], x1 = 0.334	0.226 ± 0.00478	–	–
[3], x1 = 0.3758	0.227 ± 0.00478	–	–
[3], x1 = 0.4453	0.218 ± 0.00478	–	–
[3], x1 = 0.501	0.206 ± 0.0043	–	–
[3], x1 = 0.6009	0.175 ± 0.00382	–	–
[3], x1 = 0.6811	0.144 ± 0.00311	–	–
[3], x1 = 0.7151	0.129 ± 0.00287	–	–
[3], x1 = 0.7626	0.111 ± 0.00239	–	–
[3], x1 = 0.8338	0.0822 ± 0.00182	–	–
[3], x1 = 0.8794	0.0634 ± 0.00141	–	–
[3], x1 = 0.9223	0.0429 ± 0.00098	–	–

O=C1CCCN1 [2-pyrrolidinone] + CCCCO
Details	excess molar enthalpy [kcal/mol]	excess molar volume [m3/mol]	speed of sound [m/s]
[2], x1 = 0.0632	–	–	1237.1 ± 2.4
[2], x1 = 0.0883	–	-6.5e-08 ± 2e-09	–
[2], x1 = 0.1021	–	-7.6e-08 ± 2e-09	–
[2], x1 = 0.1176	–	–	1245.9 ± 2.4
[2], x1 = 0.186	–	–	1262.9 ± 2.4
[2], x1 = 0.2306	–	–	1276.6 ± 2.4
[2], x1 = 0.2423	–	-1.47e-07 ± 3e-09	–
[2], x1 = 0.3298	–	-1.72e-07 ± 3e-09	–
[2], x1 = 0.3394	–	–	1315.9 ± 2.4
[2], x1 = 0.3954	–	–	1338.2 ± 2.4
[2], x1 = 0.4003	–	-1.87e-07 ± 3e-09	–
[2], x1 = 0.4442	–	–	1359 ± 2.4
[2], x1 = 0.4536	–	-1.9e-07 ± 3e-09	–
[2], x1 = 0.4825	–	–	1374.9 ± 2.4
[2], x1 = 0.497	–	-1.92e-07 ± 3e-09	–
[2], x1 = 0.5269	–	-1.88e-07 ± 3e-09	–
[2], x1 = 0.5453	–	–	1402 ± 2.4
[2], x1 = 0.5702	–	–	1412.4 ± 2.4
[2], x1 = 0.5855	–	-1.83e-07 ± 3e-09	–
[2], x1 = 0.6229	–	-1.76e-07 ± 3e-09	–
[2], x1 = 0.6427	–	–	1441.1 ± 2.4
[2], x1 = 0.7154	–	-1.53e-07 ± 3e-09	–
[2], x1 = 0.7367	–	–	1478 ± 2.5
[2], x1 = 0.7617	–	-1.36e-07 ± 3e-09	–
[2], x1 = 0.8275	–	–	1512.6 ± 2.5
[2], x1 = 0.8382	–	-1.02e-07 ± 2e-09	–
[2], x1 = 0.8826	–	-7.7e-08 ± 2e-09	–
[2], x1 = 0.9152	–	–	1551 ± 2.5
[3], x1 = 0.0824	0.0833 ± 0.00184	–	–
[3], x1 = 0.1933	0.155 ± 0.00335	–	–
[3], x1 = 0.2472	0.174 ± 0.00382	–	–
[3], x1 = 0.3241	0.193 ± 0.00406	–	–
[3], x1 = 0.3748	0.195 ± 0.0043	–	–
[3], x1 = 0.4183	0.195 ± 0.0043	–	–
[3], x1 = 0.4734	0.191 ± 0.00406	–	–
[3], x1 = 0.5451	0.178 ± 0.00382	–	–
[3], x1 = 0.5725	0.17 ± 0.00359	–	–
[3], x1 = 0.6427	0.151 ± 0.00335	–	–
[3], x1 = 0.7058	0.127 ± 0.00263	–	–
[3], x1 = 0.7499	0.112 ± 0.00239	–	–
[3], x1 = 0.8571	0.0658 ± 0.00146	–	–
[3], x1 = 0.9247	0.0365 ± 0.000837	–	–

O=C1CCCN1 [2-pyrrolidinone] + CCCO
Details	excess molar enthalpy [kcal/mol]	excess molar volume [m3/mol]	speed of sound [m/s]
[2], x1 = 0.0349	–	-2.3e-08 ± 2e-09	–
[2], x1 = 0.0973	–	-6.7e-08 ± 2e-09	–
[2], x1 = 0.0982	–	–	1219.3 ± 2.4
[2], x1 = 0.1436	–	-1e-07 ± 2e-09	–
[2], x1 = 0.158	–	–	1240.8 ± 2.4
[2], x1 = 0.1968	–	–	1255 ± 2.4
[2], x1 = 0.2052	–	-1.38e-07 ± 3e-09	–
[2], x1 = 0.2654	–	-1.75e-07 ± 3e-09	–
[2], x1 = 0.2958	–	–	1294.4 ± 2.4
[2], x1 = 0.3299	–	-2.08e-07 ± 3e-09	–
[2], x1 = 0.3309	–	–	1308.9 ± 2.4
[2], x1 = 0.3881	–	-2.27e-07 ± 3e-09	–
[2], x1 = 0.3952	–	–	1336.5 ± 2.4
[2], x1 = 0.4485	–	–	1359.7 ± 2.4
[2], x1 = 0.4495	–	-2.44e-07 ± 3e-09	–
[2], x1 = 0.4949	–	–	1380.7 ± 2.4
[2], x1 = 0.521	–	–	1391.8 ± 2.4
[2], x1 = 0.5246	–	-2.48e-07 ± 3e-09	–
[2], x1 = 0.5749	–	-2.46e-07 ± 3e-09	–
[2], x1 = 0.5951	–	–	1425.6 ± 2.4
[2], x1 = 0.6516	–	-2.27e-07 ± 3e-09	–
[2], x1 = 0.6957	–	–	1470.7 ± 2.5
[2], x1 = 0.7314	–	–	1485.7 ± 2.5
[2], x1 = 0.7453	–	-1.85e-07 ± 3e-09	–
[2], x1 = 0.7968	–	–	1515.4 ± 2.5
[2], x1 = 0.8357	–	-1.29e-07 ± 3e-09	–
[2], x1 = 0.8982	–	–	1558.4 ± 2.5
[2], x1 = 0.9206	–	-6.5e-08 ± 2e-09	–
[3], x1 = 0.0592	0.0594 ± 0.00131	–	–
[3], x1 = 0.1085	0.0933 ± 0.00203	–	–
[3], x1 = 0.1966	0.135 ± 0.00287	–	–
[3], x1 = 0.2273	0.145 ± 0.00311	–	–
[3], x1 = 0.3287	0.161 ± 0.00359	–	–
[3], x1 = 0.3782	0.159 ± 0.00335	–	–
[3], x1 = 0.4394	0.155 ± 0.00335	–	–
[3], x1 = 0.495	0.146 ± 0.00311	–	–
[3], x1 = 0.5219	0.139 ± 0.00311	–	–
[3], x1 = 0.5951	0.125 ± 0.00263	–	–
[3], x1 = 0.6622	0.108 ± 0.00234	–	–
[3], x1 = 0.7539	0.0808 ± 0.00177	–	–
[3], x1 = 0.8065	0.068 ± 0.00151	–	–
[3], x1 = 0.8946	0.0396 ± 0.000908	–	–

O=C1CCCN1 [2-pyrrolidinone] + CCO
Details	excess molar enthalpy [kcal/mol]	excess molar volume [m3/mol]	speed of sound [m/s]
[2], x1 = 0.0767	–	-9.2e-08 ± 2e-09	–
[2], x1 = 0.0784	–	–	1172.9 ± 2.3
[2], x1 = 0.1393	–	-1.72e-07 ± 3e-09	–
[2], x1 = 0.1607	–	–	1230.8 ± 2.4
[2], x1 = 0.1763	–	-2.15e-07 ± 3e-09	–
[2], x1 = 0.1963	–	–	1252.8 ± 2.4
[2], x1 = 0.2471	–	–	1282.9 ± 2.4
[2], x1 = 0.2676	–	-3.07e-07 ± 4e-09	–
[2], x1 = 0.338	–	–	1327.2 ± 2.4
[2], x1 = 0.3493	–	-3.68e-07 ± 4e-09	–
[2], x1 = 0.3876	–	–	1349.4 ± 2.4
[2], x1 = 0.4016	–	-3.94e-07 ± 5e-09	–
[2], x1 = 0.4337	–	–	1366.5 ± 2.4
[2], x1 = 0.4713	–	–	1381 ± 2.4
[2], x1 = 0.4865	–	-4.16e-07 ± 5e-09	–
[2], x1 = 0.5347	–	–	1404.3 ± 2.4
[2], x1 = 0.5479	–	-4.13e-07 ± 5e-09	–
[2], x1 = 0.5985	–	–	1427.8 ± 2.4
[2], x1 = 0.6015	–	-3.94e-07 ± 5e-09	–
[2], x1 = 0.6412	–	–	1444.8 ± 2.4
[2], x1 = 0.6573	–	-3.66e-07 ± 4e-09	–
[2], x1 = 0.7145	–	-3.21e-07 ± 4e-09	–
[2], x1 = 0.7539	–	–	1492.3 ± 2.5
[2], x1 = 0.7982	–	-2.4e-07 ± 3e-09	–
[2], x1 = 0.8064	–	–	1518.1 ± 2.5
[2], x1 = 0.856	–	-1.75e-07 ± 3e-09	–
[2], x1 = 0.8887	–	–	1559.4 ± 2.5
[2], x1 = 0.92	–	-9.7e-08 ± 2e-09	–
[3], x1 = 0.0647	0.0643 ± 0.00143	–	–
[3], x1 = 0.1158	0.102 ± 0.00222	–	–
[3], x1 = 0.2075	0.14 ± 0.00311	–	–
[3], x1 = 0.2768	0.149 ± 0.00311	–	–
[3], x1 = 0.338	0.152 ± 0.00335	–	–
[3], x1 = 0.38	0.148 ± 0.00311	–	–
[3], x1 = 0.4337	0.14 ± 0.00311	–	–
[3], x1 = 0.5337	0.118 ± 0.00263	–	–
[3], x1 = 0.605	0.104 ± 0.00227	–	–
[3], x1 = 0.6856	0.0834 ± 0.00184	–	–
[3], x1 = 0.7539	0.0649 ± 0.00143	–	–
[3], x1 = 0.7929	0.0552 ± 0.00124	–	–
[3], x1 = 0.8436	0.0455 ± 0.00103	–	–
[3], x1 = 0.8904	0.0312 ± 0.000741	–	–

CCCCO [butan-1-ol]
[1]
Details	mass density [kg/m3]	speed of sound [m/s]
298.15 K	809.5 ± 0.19	–
308.15 K	–	1232.2 ± 2.4

CCO [ethanol]
[1]
Details	mass density [kg/m3]	speed of sound [m/s]
298.15 K	785.08 ± 0.18	–
308.15 K	–	1112 ± 2.3

CCCO [propan-1-ol]
[1]
Details	mass density [kg/m3]	speed of sound [m/s]
298.15 K	799.28 ± 0.19	–
308.15 K	–	1188.2 ± 2.3

CC(C)O [propan-2-ol]
[1], 298.15 K
Details	mass density [kg/m3]	speed of sound [m/s]
–	780.98 ± 0.18	1135.9 ± 2.3
